The record followed here is ChEMBL document CHEMBL1131315, “Synthesis and anticonvulsant activity of 2(3H)-benzoxazolone and 2(3H)-benzothiazolone derivatives” (J Med Chem, 1998).

Each structure is given as a SMILES string. The source made the active and inactive calls. The calls are words filed in the database; no cut-off is given here.

As usually defined, the ED50 is the dose at which the effect has come halfway, by size or by number of responders. A higher ED50 goes with a need for a large dose. In general, TD50 refers to the dose at which the toxic effect under study appears in half of the subjects. As usually defined, the Ki is the dissociation constant of the complex between target and ligand, obtained from inhibition or displacement. Low values mean higher affinity, high ones lower affinity.

For data set [1], the system named is Mus musculus. The data set can be described thus: The compound was tested for anticonvulsant activity in Maximal electroshock seizure test for 4 hr in mice(ip); active at 300 mg/kg. Details: dose 300 mg/kg. Type of data set: functional, organism-based. In general terms: In the maximal electroshock model the usual endpoint is tonic extension of the hind limbs.

The test system of data set [2] is Mus musculus. Put plainly: Anticonvulsant activity in Maximal electroshock seizure test at 100 mg/kg i.p. in mice. Type of data set: functional, organism-based. Details: dose 100 mg/kg.
Data set [3] deals with Mus musculus. Put plainly: The compound was tested for anticonvulsant activity in subcutaneous pentylenetetrazole seizure test (sc Met) for 30 min in mice; activity at 300 mg/kg. Details: dose 300 mg/kg. Type of data set: functional, organism-based.
Data set [4] relates to Mus musculus. The data set can be described thus: The compound was tested for anticonvulsant activity in subcutaneous pentylenetetrazole seizure test (sc Met) for 4 hr in mice; activity at 300 mg/kg. Type of data set: functional, organism-based. Details: dose 300 mg/kg.
A short description of data set [5]: The compound was tested for neurologic toxicity (rotarod) test for 30 min in mice; activity at 100 mg/kg. In kind it is organism-based. Details: dose 100 mg/kg. To be noted: mouse, in vivo, 0.5 h. Background: The rotarod test checks motor coordination on a turning rod.
Data set [6] can be described thus: The compound was tested for neurologic toxicity (rotarod) test for 4 hr in mice; no activity or toxicity at 300 mg/kg. In kind it is organism-based. Details: dose 300 mg/kg. To be noted: mouse, in vivo.
Data set [7] has as its system Mus musculus. Put plainly: Time of peak effect in mice following i.p. administration. In kind it is functional.
For data set [8], the system named is Mus musculus. Put plainly: The compound was tested for anticonvulsant activity in Maximal electroshock seizure test (MES) for 4 hr in mice(ip); active at 300 mg/kg. Type of data set: functional, organism-based. Details: dose 300 mg/kg.
In data set [9] the test system is Mus musculus. The data set can be described thus: The compound was tested to inhibit 50% of induced maximal electroshock seizure in mice on ip administration. In kind it is functional.
For data set [10], the system named is Mus musculus. Put plainly: Inhibition of s.c. pentylenetetrazole induced seizure in mice following i.p. administration. In kind it is functional.
For data set [11], the system named is Mus musculus. The data set can be described thus: The compound was determined for the dose (mg/kg) by rotarod test at the time of peak neurotoxic effect in mice on ip administration. In kind it is functional.
The subject of data set [12] is Mus musculus. Put plainly: Anticonvulsant activity in subcutaneous pentylenetetrazole seizure test for 30 min in mice; No activity/toxicity at 300 mg/kg. Type of data set: functional, organism-based. Details: dose 300 mg/kg.
Data set [13] relates to Mus musculus. The data set can be described thus: The anticonvulsant activity in subcutaneous pentylenetetrazole seizure test (sc Met) for 4 hr in mice; no activity or no toxicity at 300 mg/kg. Type of data set: functional, organism-based. Details: dose 300 mg/kg.
The next data set has as its target Sigma 2 receptor. The data set can be described thus: Affinity on sigma 2 receptor using [3H]- DTG as radioligand.
Data set [14] concerns the target Sigma non-opioid intracellular receptor 1 (Homo sapiens) (UniProt Q99720). Put plainly: Ratio between the Ki(nM)values of sigma-2 and sigma-1. In kind it is functional.
Data set [15] in a line: The compound was tested for neurologic toxicity (rotarod) test for 30 min in mice; active at 300 mg/kg. Type of data set: organism-based. Details: dose 300 mg/kg. To be noted: mouse, in vivo, 0.5 h.
Data set [16] is described as follows: The compound was tested for time of peak effect (TPE) in hours for its toxicity in mice on ip administration. Type of data set: organism-based. The conditions noted are these: mouse, in vivo.
Data set [17] in a line: The compound was tested for neurologic toxicity (rotarod) test for 4 hours in mice; active at 100 mg/kg. Type of data set: organism-based. Details: dose 100 mg/kg. To be noted: mouse, in vivo.

Chain of Sigma non-opioid intracellular receptor 1 (Homo sapiens) (Q99720 whole entry): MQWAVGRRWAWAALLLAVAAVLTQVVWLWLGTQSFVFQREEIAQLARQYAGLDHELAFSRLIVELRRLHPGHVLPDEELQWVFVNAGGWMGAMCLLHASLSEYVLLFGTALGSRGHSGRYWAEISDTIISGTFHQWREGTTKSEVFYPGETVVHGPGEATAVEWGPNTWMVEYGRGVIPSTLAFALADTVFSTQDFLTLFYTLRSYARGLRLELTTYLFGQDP

On to `CCCCC(=O)c1ccc2c(c1)sc(=O)n2C(C)=O`, for which the MES entry in the data set on Mus musculus [1] and in the data set on Mus musculus [2] was “active at 300 mg/kg” in each case. Moreover, the scMet result in the data set with Mus musculus [3] and with Mus musculus [4] was “activity at 300 mg/kg” in each case. The Rotarod toxicity entry in data set [5] and in [6] was “activity at 100 mg/kg” each time.
With `O=C(c1ccccc1)c1ccc2c(c1)sc(=O)n2CCN1CCCC1`, the Activity with Mus musculus [7] was 0.25 h. The MES result with Mus musculus [8] and with Mus musculus [2] was “active at 300 mg/kg” in each case. Besides, the ED50 is 42.5 mg/kg with Mus musculus [9] and more than 210 mg/kg in the data set with Mus musculus [10]. The TD50 with Mus musculus [11] is 170 mg/kg. For the same compound, the scMet entry in the data set with Mus musculus [12] and in the data set with Mus musculus [13] was “No activity or no toxicity at 300 mg/kg” in each case. In addition, at Sigma 2 receptor, affinity was put at a Ki of 225 nM. In addition, the Ratio in data set [14] amounted to 4. Besides, the Rotarod toxicity entry in [15] and in [17] was “active at 100 mg/kg” each time. The compound further returned a Toxicity in data set [16] of 0.25 h.
